Patent US20160122758A1, “AGENTS FOR DOWNREGULATION OF THE ACTIVITY AND/OR AMOUNT OF BCL-XL AND/OR BCL-W” (YEDA RESEARCH AND DEVELOPMENT CO. LTD., priority 2013, published 2016)
Residues, ends and D or L forms follow the SMILES beside them. *: point of attachment. Cbz = O=C(OCc1ccccc1)*; CH2F = FC*

What was measured:
[1] = test system: Etoposide treated senescent IMR-90 cells; assay: Viability assay after siRNA transfection of Etoposide treated senescent IMR-90 cells; type: cell-based, human; conditions: 10 μM ABT-199 for 24 hours, three days post siRNA transfection
Experimental: (§1) Human primary fibroblasts (IMR-90, BJ) were obtained from ATCC MEFs were prepared from day 13.5 embryos. All cultures were maintained in DMEM supplemented with 10% fetal bovine serum (Hyclone). Senescence was induced by treatment with Etoposide ([…], Sigma), or the introduction of oncogenic H-ras^v12 using infections into IMR-90 cells (as described by Narita, 2003).
(§2) Growing and senescent cells were plated in 12-well plates at 7.5×10^4 cells per well. The following day, cells were treated with DMSO control, ABT-737 (Selleckchem, USA) or ABT-199 (ChemieTek, USA) and cell viability was analyzed 24 hours thereafter. 300 μl of PrestoBlue Reagent (Invitrogen, USA) were added to each well, and plates were incubated for 20 minutes at 37 C. 100 μl samples were taken in duplicates to a 96 well plate and read at an OD of 540 nm using a Tecan plate reader (Infinite® M200). A three-hour pre incubation with 100 μM z-VAD-fmk (Santa Cruz, USA) was performed prior to the addition of ABT-737 where indicated.
(§3) ON-TARGETplus SMARTpool small-interfering RNAs targeting p21, Bcl-2, Bcl-w, Bcl-xL and the nontargeting pool siRNAs (control) were transfected into cells with the Dharmafect 1 reagent (all from Dharmacon, Lafayette, Colo., USA). siRNAs were washed away 24 hours post transfection and viability was analyzed four days thereafter as described above.

[2] = test system: senescent IMR-90 or MEF cells; assay: Viability assay, ABT-199 alone on senescent IMR-90 or MEF cells; type: cell-based, human, mouse; conditions: ABT-199 for 24 hours
Experimental: as §1, §2

[3] = test system: senescent IMR-90 cells; assay: Viability assay, ABT-737 with or without z-VAD-fmk on IMR-90 cells; type: cell-based, human
Experimental: as §1, §2
Members of the Bcl-2 family negatively regulate apoptotic pathway (Azmi et al., 2011; Cory et al., 2003; Reed, 2008). To determine whether ABT-737 kills senescent cells via the apoptotic pathway, DNA damage induced senescent IMR-90 cells, oncogenic H-Ras^v12 induced senescent cells and control growing cells were treated with ABT-737 alone or in combination with pan-caspase inhibitor z-VAD-fmk. […]

[4] = test system: cleaved caspase-3; assay: Immunoblot for cleaved caspase-3 in IMR-90 cells treated with ABT-737 with or without z-VAD-fmk; type: cell-based, human
Experimental: Cells were lysed in RIPA buffer. Equal amounts of protein were separated on 12% SDS-polyacrylamide gels and transferred to PVDF membranes. Detection was performed using the following antibodies: anti-Rb (9313), anti-cleaved parp (9541), anti-cleaved caspase-3 (9661), anti-phospho-p53 (9284), anti-mouse-p53 (2524), anti-phospho-NF-κB (3033), anti-Bcl-2 (2870), anti-Bcl-w (2724) and anti-Bcl-xL (2764) were purchased from Cell Signaling Technology. Anti-human p53 (DO1 and PAb1801). Anti-p16 (sc-759), anti-mouse-p21 (sc-397), anti-NFκB p65 (sc-372) and anti-α-Tubulin (sc-9104) were obtained from Santa Cruz Biotechnology. Anti-human-p21 (556431) was obtained from BD Pharmingen, Anti-Mcl-1 (1239-1) was obtained from Epitomics.
as §2, with “indicated. […]” for “indicated.”

[5] = test system: Etoposide treated BJ cells; assay: Viability assay after siRNA transfection, senescent BJ cells; type: cell-based, human; conditions: Etoposide treated BJ cells with sip21; z-VAD-fmk four days with daily replenishment
Experimental: as §1, §2
as §3, with “above. […]” for “above.”

[6] = test system: senescent human (IMR-90) and mouse (MEF) fibroblasts; assay: Viability assay, ABT-737 on senescent and control IMR-90 and MEF fibroblasts; type: cell-based; conditions: ABT-737 for 24 hours
Experimental: as §1, §2
To further test the hypothesis that an increase in the levels of anti-apoptotic proteins Bcl-w and Bcl-xL could account for the apoptotic resistance of senescent cells by an independent approach, cells were treated with the pharmacological inhibitor of the Bcl-2 family of proteins, ABT-737 (Chauhan et al., 2007). […]

SMILES: CC1(C)CCC(CN2CCN(c3ccc(C(=O)NS(=O)(=O)c4ccc(NCC5CCOCC5)c([N+](=O)[O-])c4)c(Oc4cnc5[nH]ccc5c4)c3)CC2)=C(c2ccc(Cl)cc2)C1 [ABT-199]
- additive effect of Bcl-2 inhibition on top of Bcl-w and Bcl-xL knockdown on senescent cell viability [1]: statistically significant, but minor additive effect
- effect on viability of oncogenic H-ras^v12 induced senescent IMR-90 cells [2]: minor decrease in cell viability
- effect on viability of senescent cells, Bcl-2 inhibition alone ([2]; IMR-90 or MEF senescent cells): almost no effect

SMILES: COC(=O)C[C@H](NC(=O)[C@H](C)NC(=O)[C@@H](NC(=O)OCc1ccccc1)C(C)C)C(=O)CF [z-VAD-fmk] (Cbz-Val-Ala-Asp(OMe)-CH2F)
- death of senescent cells following ABT-737 treatment, in presence of pan-caspase inhibitor ([3]; 100 μM z-VAD-fmk three-hour pre incubation, then ABT-737): prevented death
- caspase-3 cleavage after addition of z-VAD-fmk to ABT-737 ([4]; senescent IMR-90 cells, ABT-737 plus z-VAD-fmk): abolished this cleavage
- rescue of cell death caused by p21 knockdown [5]: 20%

SMILES: CN(C)CC[C@H](CSc1ccccc1)Nc1ccc(S(=O)(=O)NC(=O)c2ccc(N3CCN(Cc4ccccc4-c4ccc(Cl)cc4)CC3)cc2)cc1[N+](=O)[O-] [ABT-737]
- reduction of viability of senescent cells ([6]; Etoposide or H-Ras^V12 induced senescent IMR-90 and MEF): 50%
- effect on viability of control cells ([6]; growing, vehicle treated or vector transduced cells): minor effect
- death of senescent cells ([3]; ABT-737 alone, 24 hours, DNA damage or H-Ras^v12 induced senescent IMR-90): induced death
- caspase-3 cleavage ([4]; senescent IMR-90 cells treated with ABT-737): caspase-3 cleavage
